{"source": "patent EP0994713B1", "about": "“USE OF A 7alpha-METHYL-17alpha-ETHYNYL-ESTRANE DERIVATIVE FOR THE TREATMENT OF ATHEROSCLEROSIS” (Akzo Nobel N.V., priority 1997, dated 1998)", "assay_type_in_all_cases": "in vivo, New Zealand White rabbits", "key": {"[1]": {"tested_on": "female ovariectomized rabbits", "experiment": "Uterus weight (estrogenic activity), cholesterol fed rabbit model", "details": "for Uterus weight per 100 grams body weight: cholesterol diet, OVX, necropsy at 20 weeks", "method": "(§1) The model is considered relevant to the human atherosclerotic process, because the cellular events occurring during the development of the atherosclerotic lesions during the atherogenic diet are similar to those observed in different stages of atherosclerotic processes in coronary arteries.\n(§2) An experiment was performed with 7 groups of sexually mature, virgin female New Zealand White rabbits (Harlan, Zeist, The Netherlands), age 7-9 months and weighing approximately 3 kg (number of […] per group: 13-14). During the acclimatization period the rabbits were fed a diet of standard commercial rabbit chow LKK20 (Hope Farms, Woerden, The Netherlands). Three weeks prior to the start of the experiment the animals were anaesthetized and underwent bilateral ovariectomy (OVX) or were sham operated. After three weeks, at the start of the experiment, the rabbits were randomized over the treatment groups. In all animals de-endothelialisation of a segment of the left carotid artery was applied by using the air-drying technique (Fishman, J.A. et al., \"Endothelial regeneration in the rat carotid artery and the significance of endothelial denudation in the pathogenesis of myointimal thickening\", Lab. Invest. 1975, 32, 339-351; and Lafont, A. et al., \"Restenosis and experimental angioplasty: Intimal, medial and adventitial changes associated with constructive remodeling\", Circulation Research, 1995, 76, 996-1002)\n(§3) The animals were randomly allocated into 7 experimental groups using a randomized block design. The groups were fed an atherogenic diet (commercial rabbit chow (LKK20) enriched with 0.4 grams cholesterol, 3.75 grams coconut oil and 3.75 grams peanut oil per 100 grams). One group was fed the standard rabbit chow (LKK20). Food intake was restricted to 80 grams daily.\n(§4) The treatments (Table I) were daily administered orally as a tablet, prepared as in Example 1. Groups 1, 2 and 3 were on a daily placebo treatment. Groups 4-5 were treated with 7α-methyl-17α-ethynyl-17β-hydroxy-estra-5(10)-en-3-one (OD-14; tibolone; 6 or 2 mg daily); group 6 with 17β-estradiol (4 mg daily). Group 7 was on treatment with 17β-estradiol decanoate (150 µg in 1 ml arachis oil injected subcutaneously once a week).\n(§5) During the experiment blood samples were drawn out of the central ear artery after sedation with Hypnorm (0.1 ml i.m.) (Janssen Pharmaceutics, Beerse, Belgium) before the daily treatment, at week 4,8,12,16 and 20, to monitor the plasma cholesterol levels and to measure, at week 17, plasma estradiol levels and plasma tibolone levels. Twenty weeks after the start of the experiment animals were anaesthetized by an i.m. injection of Hypnorm (0.5 ml/kg). After blood sampling the rabbits were killed by exsanguination and the aortic arch, uterus and carotid artery removed for further analyses.\n(§6) In addition to example 2 an additional experiment was performed with two lower doses of Org OD14 and a higher dose of estradiol decanoate. […] The procedures were identical to those in example 2.\n(§7) Three weeks prior to the start of the experiment the animals were ovariectomized. At the start of the experiment the carotid artery was de-endothelialised using the air-drying technique. The normal rabbit chow was replaced by the atherogenic diet except for the control group which received during the experiment the normal rabbit chow.\n(§8) The treatments (table II) of group 1, 2, 3 and 4 were daily administered orally as a tablet, prepared as in example 1. The doses of Org OD14 per tablet, however, were 0.6 mg and 0.15 mg respectively. Group 5 was on treatment with 17β-estradiol decanoate (300 µg in 1 ml arachis oil injected subcutaneously once a week). Twenty weeks after the start of the experiment was ended in the same manner as described in example 2.\n(§9) After 20 weeks of diet and of daily treatment, necropsy was performed to determine the accumulation of cholesterol and fatty streaks in the aortic arch and the advanced lesions in the carotid artery. […]"}, "[2]": {"tested_on": "female ovariectomized rabbits", "experiment": "Plasma cholesterol levels, cholesterol fed rabbit model", "details": "for Mean plasma cholesterol exposure: cholesterol diet, OVX, 20 weeks; for plasma cholesterol levels (in words): Example 2: Org OD14 2 and 6 mg, E2 4 mg orally daily, E2D 150 µg s.c. weekly", "method": "as §1\n(§10) An experiment was performed with 7 groups of sexually mature, virgin female New Zealand White rabbits (Harlan, Zeist, The Netherlands), age 7-9 months and weighing approximately 3 kg (number of […] per group: 13-14). During the acclimatization period the rabbits were fed a diet of standard commercial rabbit chow LKK20 (Hope Farms, Woerden, The Netherlands). Three weeks prior to the start of the experiment the animals were anaesthetized and underwent bilateral ovariectomy (OVX) or were sham operated. After three weeks, at the start of the experiment, the rabbits were randomized over the treatment groups.\n(§11) The animals were randomly allocated into 7 experimental groups using a randomized block design. […] One group was fed the standard rabbit chow (LKK20). Food intake was restricted to 80 grams daily.\nas §4, with “Groups” for “The treatments (Table I) were daily administered orally as a tablet, prepared as in Example 1. Groups”\nas §5, §7\n(§12) Group 5 was on treatment with 17β-estradiol decanoate (300 µg in 1 ml arachis oil injected subcutaneously once a week)."}, "[3]": {"tested_on": "female ovariectomized rabbits", "experiment": "Intimal thickening (advanced lesions) in carotid artery after de-endothelialisation", "details": "for Advanced lesions in carotid artery: intimal surface: cholesterol diet, OVX, necropsy at 20 weeks; for advanced lesion formation following mechanical de-endothelisation (in words): Example 2: Org OD14 2 and 6 mg, E2 4 mg orally daily, E2D 150 µg s.c. weekly", "method": "as §1, §2, §3, §4\nas §5, with “analyses. […]” for “analyses.”\nThe left (airdried) carotid artery was dissected and fixed in 2% paraformaldehyde containing 6.8% glucose. The right carotid artery was used as comparison. After fixation the tissue was divided in blocks with a length of 2 mm and embedded in paraffin (Paraplast plus®, Sherwood Medical Co, St. Louis, USA) using an automated tissue processor (Hypercenter XP, Shandon).\nTo measure intimal thickening (using image analysis) a specific staining method and a belonging image analysis application have been developed.\nMeasurements were performed on 2 µm transverse sections which were treated with elastase (Serva Feinbiochemica Gmbh, Heidelberg, Germany) prior to elastin staining with Lawson solution (Boom, Meppel, the Netherlands) and light green (Sigma). Subsequently sections were airdried and mounted in Pertex (Leica Gmbh, Nussloch, Germany).\nFor morphological study both methylene blue/Azur II and hemotoxylin/eosin stained (2 µm) transverse sections were used. Smooth muscle cells and macrophages were detected with respectively α-actin antibodies (Sigma) and anti-macrophage antibodies (RAM11, DAKO, Glostrup, Denmark). […]"}, "[4]": {"tested_on": "female ovariectomized rabbits", "experiment": "Fatty streaks in the aortic arch (Sudan Red, image analysis)", "details": "cholesterol diet, OVX, necropsy at 20 weeks", "method": "as §1, §2, §3, §4, §5, §6, §7, §8\nThe aortic arch was dissected free, opened longitudinally and fixed in 2% paraformaldehyde. The tissue was then stained for lipids using 0.3% (w/v) Sudan Red. Colour photographs were taken of all segments. […]"}, "[5]": {"tested_on": "female ovariectomized rabbits", "experiment": "Vessel wall cholesterol measurement in the aortic arch", "details": "for Cholesterol level in aortic arch: cholesterol diet, OVX, necropsy at 20 weeks", "method": "as §1, §10, §11\nas §4, with “Groups” for “The treatments (Table I) were daily administered orally as a tablet, prepared as in Example 1. Groups”\nas §5, §7, §12\nThe amount of protein in the tissue was determined by the method of Lowry."}, "[6]": {"tested_on": "female ovariectomized rabbits", "experiment": "Overall atherosclerotic lesion formation, cholesterol fed rabbit model", "details": "Example 3: Org OD14 0.6 mg orally daily; estradiol decanoate 300 µg s.c. weekly", "method": "as §1, §6, §7, §8\nIn example 3 we tested Org OD14 at two lower doses (0.6 and 0.15 mg orally once daily) and estradiol decanoate at a higher dose (300 µg s.c. once weekly). […]"}, "[7]": {"experiment": "Body weight at necropsy, cholesterol fed rabbit model", "details": "cholesterol diet, OVX, necropsy at 20 weeks", "method": "as §1, §2, §3, §4, §5, §6, §7, §8, §9"}, "[8]": {"details": "Example 2, Group 6: 4 mg orally daily"}, "[9]": {"details": "Example 2, Group 7: 150 µg subcutaneously once a week"}, "[10]": {"details": "Example 3: 300 µg subcutaneously once weekly"}}}
{"smiles": "C[C@]12CC[C@@H]3c4ccc(O)cc4CC[C@H]3[C@@H]1CCC2O", "note": "(stereo partly drawn) [Estradiol, estra-1,3,5 (10)-triene-3,17-diol, reference compound]", "values": [{"measurement": "Uterus weight per 100 grams body weight", "setting": "[1]; [8]", "result": "0.31 ±0.02", "unit": "per 100 grams body weight"}, {"measurement": "Mean plasma cholesterol exposure", "setting": "[2]; [8]", "result": "27.7 ± 2.8", "unit": "mmol/L/day"}, {"measurement": "plasma cholesterol levels (in words)", "setting": "[2]", "result": "did not affect plasma cholesterol levels"}, {"measurement": "Advanced lesions in carotid artery: intimal surface", "setting": "[3]; [8]", "result": "0.30 ± 0.06", "unit": "mm^2"}, {"measurement": "advanced lesion formation following mechanical de-endothelisation (in words)", "setting": "[3]", "result": "had no effect on advanced lesion formation"}, {"measurement": "Fatty streak in aortic arch", "setting": "[4]; [8]", "result": "25.5 ± 5.2 % of arcus covered"}, {"measurement": "Cholesterol level in aortic arch", "setting": "[5]; [8]", "result": "521 ± 99", "unit": "nmol/mg protein"}, {"measurement": "cholesterol accumulation in the aortic arch (in words)", "setting": "[5]; Example 2: Org OD14 2 and 6 mg, E2 4 mg orally daily", "result": "did not lead to a reduction in cholesterol accumulation"}]}
{"smiles": "CCCCCCCCCC(=O)O[C@H]1CC[C@H]2[C@@H]3CCc4cc(O)ccc4[C@H]3CC[C@]12C", "note": "[Estradiol decanoate, 17β-estradiol decanoate, reference compound]", "values": [{"measurement": "Uterus weight per 100 grams body weight", "setting": "[1]; [9]", "result": "0.37 ±0.04", "unit": "per 100 grams body weight"}, {"measurement": "increase of uterus weight", "setting": "[1]; Example 3, text: estradiol decanoate 300 µg s.c. once weekly, versus placebo 0.054", "result": 835, "unit": "%"}, {"measurement": "uterus weight", "setting": "[1]; Example 3, text: estradiol decanoate 300 µg s.c. once weekly, placebo 0.054", "result": "0.505 grams per 100 grams body weigh"}, {"measurement": "Uterus weight per 100 grams body weight", "setting": "[1]; [10]", "result": "0.505 ±0.075", "unit": "per 100 grams body weight"}, {"measurement": "Mean plasma cholesterol exposure", "setting": "[2]; [9]", "result": "30.0 ± 3.7", "unit": "mmol/L/day"}, {"measurement": "plasma cholesterol levels (in words)", "setting": "[2]", "result": "did not affect plasma cholesterol levels"}, {"measurement": "Mean plasma cholesterol exposure", "setting": "[2]; [10]", "result": "23.0 ± 2.0", "unit": "mmol/L/day"}, {"measurement": "Advanced lesions in carotid artery: intimal surface", "setting": "[3]; [9]", "result": "0.23 ± 0.06 * mm^2"}, {"measurement": "Histology of the lesions", "setting": "[3]; Example 2, carotid artery, placebo on cholesterol diet: smooth muscle cells and foam cells", "result": "the lesions still consisted of smooth muscle cells and foam cells"}, {"measurement": "advanced lesion formation following mechanical de-endothelisation (in words)", "setting": "[3]", "result": "reduced advanced lesion formation"}, {"measurement": "Advanced lesions in carotid artery: intimal surface", "setting": "[3]; [10]", "result": "0.18 ± 0.02 * mm^2"}, {"measurement": "Fatty streak in aortic arch", "setting": "[4]; [9]", "result": "28.1 ± 4.1 % of arcus covered"}, {"measurement": "Fatty streak in aortic arch", "setting": "[4]; [10]", "result": "14.2 ± 3.2 % of arcus covered"}, {"measurement": "Cholesterol level in aortic arch", "setting": "[5]; [9]", "result": "318 ± 58", "unit": "nmol/mg protein"}, {"measurement": "reduction of cholesterol accumulation in the aortic arch", "setting": "[5]; Example 2: 150 µg s.c. once a week, versus placebo", "result": 46, "unit": "%"}, {"measurement": "Cholesterol level in aortic arch", "setting": "[5]; [10]", "result": "225 ± 69", "unit": "nmol/mg protein"}, {"measurement": "atherosclerotic lesion formation (in words)", "setting": "[6]", "result": "still only partially inhibited"}, {"measurement": "Body weight", "setting": "[7]; [9]", "result": "2973 ± 52", "unit": "grams"}, {"measurement": "Body weight", "setting": "[7]; [10]", "result": "3093 ± 60", "unit": "grams"}]}
